{"source": "patent US4529593A", "about": "“Use of gallium salts to treat disorders of calcium homeostasis” (Sloan-Kettering Institute for Cancer Research, priority 1984, dated 1985)", "origin": "cited, not measured here", "key": {"[1]": {"test_system": "bone cells (particularly osteoclasts)", "details": "comparatively brief exposure; Minkin 1973, Bockman unpublished; cited from earlier work"}, "blood calcium levels": {"test_system": "blood calcium levels", "details": "prior knowledge; cited from earlier work"}}, "data": [{"smiles": "CO[C@H](C(=O)[C@@H](O)[C@@H](C)O)[C@@H]1Cc2cc3cc(O[C@H]4C[C@@H](O[C@H]5C[C@@H](O)[C@H](O)[C@@H](C)O5)[C@H](O)[C@@H](C)O4)c(C)c(O)c3c(O)c2C(=O)[C@H]1O[C@H]1C[C@@H](O[C@H]2C[C@@H](O[C@H]3C[C@](C)(O)[C@H](O)[C@@H](C)O3)[C@@H](O)[C@@H](C)O2)[C@H](O)[C@@H](C)O1", "note": "[Mithramycin]", "values": [{"measurement": "loss of bone cells (particularly osteoclasts) number", "setting": "[1]", "value": "considerable loss of bone cells"}, {"measurement": "blood calcium levels", "setting": "blood calcium levels", "value": "can also reduce blood calcium levels"}]}]}
